Measured values reported in patent US20040106104A1, “Viral envelope mediated fusion assay” (priority 2002, published 2004).

Assays:
HIV NL4-3 whole virus = test: Whole virus assay, NL4-3; format: cell-based; settings: read-out: BMS-806 EC50 Whole Virus
HIV envelope 92US072 = test: TOPO cell mediated fusion assay, clinical envelope 92US072; format: cell-based; settings: clinical envelope 92US072, source PBMC; read-out: BMS-806 EC50 TOPO Fusion
Experimental: (§1) The effector cells were prepared by transfecting 1.7×10^6 Hela H1 cells in a T75 flask with the linear viral envelope expression element and pTET-Off using a Lipofectamine Plus Kit (Invitrogen) as follows. 3 μg of the linear envelope expression vector and 3 μg of pTET-OFF were mixed with 750 μl of D-MEM media. 49 μl of Plus Reagent was added to the DNA mixture, the solution was mixed. After 15 minutes at room temperature a solution consisting of 750 μl D-MEM and 30 μl of lipofectamine was added to the DNA solution. The solution was mixed and incubated at room temperature for 15 minutes. The media from 1.7×10^6 Hela H1 cells ion a T75 flask was removed, the cells were washed with 15 ml of D-PBS, and 6 ml of D-MEM without serum was added to the cells. The DNA/lipofectamine solution was mixed, added to the cells and the cells were then incubated at 37° C. in the presence of 5% CO2. After 4 hours, the transfection mixture was removed and replaced with 15 ml of D-MEM 10% FBS and incubated overnight at 37° C. in the presence of 5% CO2.
(§2) Preparation of Target Cells Hela H1 cells expressing CD4, CXCR4, CCR5, and containing an integrated copy of a TRE/luciferase reporter gene were used as target cells. These cells were maintained in DMEM containing 10% FBS, 0.2 mg/ml G418, 0.4 mg/ml zeocin, 0.1 mg/ml hygromycin B, and 1.5 μg/ml puromycin. […]

HIV BRH04821 whole virus = test: Whole virus assay, BRH04821; format: cell-based; settings: BRH04821, source serum; read-out: BMS-806 EC50 Whole Virus
HIV 93US157 whole virus = test: Whole virus assay, 93US157; format: cell-based; settings: 93US157, source PBMC; read-out: BMS-806 EC50 Whole Virus
HIV envelope BRH04820 = test: TOPO cell mediated fusion assay, clinical envelope BRH04820; format: cell-based; settings: clinical envelope BRH04820, source serum; read-out: BMS-806 EC50 TOPO Fusion
Experimental: as §1, §2

HIV envelope 93US157 = test: TOPO cell mediated fusion assay, clinical envelope 93US157; format: cell-based; settings: clinical envelope 93US157, source PBMC; read-out: BMS-806 EC50 TOPO Fusion
Experimental: as §1, §2

HIV LAI whole virus = test: Whole virus assay, LAI; format: cell-based; settings: read-out: BMS-806 EC50 Whole Virus
HIV LAI envelope = HIV LAI envelope (Human immunodeficiency virus type 1 group M subtype B, UniProt P03377); settings: read-out: BMS-806 EC50 TOPO Cell Fusion, linear envelope expression element, Hela H1 effector and target cells, luciferase
Experimental: (§3) Preparation of Linear HIV Envelope Expression Element HIV viral RNA was isolated from 140 μl culture supernatant using a QIAamp Viral RNA Mini Kit (Qiagen Inc). The viral RNA was eluted in 60 μl of elution buffer. First strand cDNA was synthesized using the SuperScript First-Strand Synthesis system for RT-PCR (Invitrogen Corporation) using 8 μl of viral RNA and random hexamers according to the manufactures instructions. The HIV envelope gene was PCR amplified using 4 μl of first strand CDNA, primers BF17 5′-[sequence]-3′ and ENV-N 5′-[sequence]-3′ and a Platimun Taq DNA Polymerase High Fidelity Kit (Invitrogen) in a 100 μl reaction. The PCR product was purified using a QIAquick PCR Purification Kit (Qiagen Inc, Valencia, Calif.). In order to introduce the proper ends for the TOPO reaction 1 μl of the first PCR reaction was PCR amplified using primers:
(§4) in 100 μl as before. The PCR reaction was run on a 0.7% agarose gel and the about 3 kb HIV envelope gene was gel purified using a QIAquick Gel Extraction KIT (Qiagen Inc). The 5′ CMV promoter element and 3′ SV40 polyadenylation element were added to 700 ng of the HIV envelope PCR fragment using a TOPO Tools Kit (Invitrogen) and the final PCR product was purified as before. […]

HIV NL4-3 envelope = test: TOPO cell mediated fusion assay, NL4-3 envelope; format: cell-based; settings: envelope NL4-3; linear envelope expression element; Hela H1 effector and target cells, luciferase; read-out: BMS-806 EC50 TOPO Cell Fusion
Experimental: as §3, §4

HIV BRH04820 whole virus = test: Whole virus assay, BRH04820; format: cell-based; settings: BRH04820, source serum; read-out: BMS-806 EC50 Whole Virus
HIV 92US072 whole virus = test: Whole virus assay, 92US072; format: cell-based; settings: 92US072, source PBMC; read-out: BMS-806 EC50 Whole Virus
HIV envelope BRH04821 = test: TOPO cell mediated fusion assay, clinical envelope BRH04821; format: cell-based; settings: clinical envelope BRH04821, source serum; read-out: BMS-806 EC50 TOPO Fusion
Experimental: as §1, §2

COc1ccnc2[nH]cc(C(=O)C(=O)N3CCN(C(=O)c4ccccc4)C[C@H]3C)c12 [BMS-806]
EC50 (HIV NL4-3 whole virus): 2.1 nM | EC50 (HIV envelope 92US072): 818 nM | EC50 (HIV BRH04821 whole virus): 5.3 nM | EC50 (HIV 93US157 whole virus): 3.9 nM | EC50 (HIV envelope BRH04820): 5.5 nM | EC50 (HIV envelope 93US157): 2.3 nM | EC50 (HIV LAI whole virus): 2.5 nM | EC50 (HIV LAI envelope): 3.5 nM | EC50 (HIV NL4-3 envelope): 5.7 nM | EC50 (HIV BRH04820 whole virus): 5.5 nM | EC50 (HIV 92US072 whole virus): 336 nM | EC50 (HIV envelope BRH04821): 2.7 nM
